≈ marks a conversion by molar mass, not a printed value.
Legend:
P. Falciparum Pf3D7A = experiment: P. falciparum growth inhibition assay ([3H]hypoxanthine incorporation); type: cell-based; details: Plasmodium falciparum, 48 h, read-out: average Pf IC50
Experimental: P. falciparum Growth Inhibition Assay. The sensitivity of P. falciparum infected erythrocytes to the compound is determined in triplicate using the [^3H]hypoxanthine incorporation method with an inoculum of 0.5% parasitemia (ring stage) and 2% hematocrit. The parasites were grown in RPMI 1640 and supplemented with […] (or 10% serum). Plates are incubated at 37° C., 5% CO2, 5% O2, 90% N2. After 24 h of incubation, [^3H]hypoxanthine is added and plates are incubated for another 24 h. After that period, plates are harvested on a glass fiber filter using a TOMTEC Cell harvester 96. Filters are dried and melt on scintillator sheets and the bound radioactivity is quantified by use of a Wallac Microbeta Trilux (Model 1450 LS-Perkin Elmer). IC50s are determined using Grafit 5 program (Grafit program; Erithacus Software, Horley, Surrey, United Kingdom).

[1] = Solubility assessment in FaSSIF (equilibrium solubility); type: physicochemical; details: thermodynamic from solid, 4 hr at room temperature, LC-MS
Experimental: Solubility Assessment in FaSSIF
Organic solvents of HPLC grade were used. Ultra pure water (Milli-Q grade) was used. Buffers were prepared with ultra pure water and filtered using 0.45μ nylon filters.
Determination of Equilibrium Solubility (Assuming Chemical Stability in the Desired Solvent is not a Problem).
• a) 1 mg of solid compound was weighted in one 4 mL glass vial and 1 mL of FaSSIF was added. All these samples were prepared by duplicate. • b) The samples were stirred (roller mixer) for 4 hr at room temperature. If required, additional solid compound (0.1 mg) was added to maintain excess of it (saturated solutions). • c) After 4 hours, the samples were centrifuged (10000 rpm, 10 min.) and the supernatants were transfer to an HPLC vial and analysed by LC-MS (previous dilution with mobile phase when needed). • d) The pH of the final solution in each sample was measured with a pH-meter (WTW pH330i and a pH-electrode Sentix 41). LC-MS Assay for Analytical Quantification
All supernatants were analysed by LC-MS. Quantification of those samples was carried out against calibration curves obtained from 1 mg/mL DMSO (Aldrich cat. ref.: 27685-5) stock solutions, by dilution with the mobile phase used in the chromatography. Depending on the solubility range, U.V. (1 μg/mL to 100 μg/mL) or MS (1 μg/mL to 1 ng/mL) detector were used in the quantification. […]

[2] = tested on: Plasmodium falciparum Pf3D7^0087/N9; experiment: P. falciparum in vivo efficacy assay (mouse model); set-up: species or system NODscidIL2Rγ^null mice engrafted with human erythrocytes; details: interval of confidence 95%
Experimental: P. falciparum In Vivo Efficacy Assay.
Antimalarial in vivo efficacy was determined using the P. falciparum mouse model following the procedure described in: Jimenez-Diaz, M. B., Mulet, T., Viera, S., Gómez, V., Garuti, H., Ibañez, J., Alvarez-Doval, A., Shlutz, D. L., Martinez, A., Improved Murine Model Of Malaria Using Plasmodium falciparum (Competent Strains and Non-Myelodepleted NOD-scid IL2R_null Mice Engrafted with Human Erythrocytes) Antimicrob. Agents Chemother 2009, 53 (10), 4533-4536.
The goal of this study is to assess the therapeutic efficacy of Example 1 against Plasmodium falciparum Pf3D7^0087/N9 growing in peripheral blood of NODscidIL2Rγ^null mice engrafted with human erythrocytes. The levels of Example 1 are measured in serial peripheral blood samples obtained from each mouse of the efficacy experiment during the first 23 hrs after the first dose. The area under the curve of levels of compound is used to estimate the exposure in blood during the first 23 hours after the first administration (AUC0-23h).
The effect of Example 1 on P. Falciparum Pf3D7^0087/N9 was assessed by microscopy and flow cytometry.

For `Cc1cncc2[nH]c(=O)n([C@H](C(=O)Nc3ccnc(F)c3)C(C)C)c(=O)c12` [Example 1, (S)—N-(2-fluoropyridin-4-yl)-3-methyl-2-(5-methyl-2,4-dioxo-1,2-dihydropyrido[3,4-d]pyrimidin-3(4H)-yl)butanamide], the IC50 (P. Falciparum Pf3D7A) was 32 nM, the solubility at 4 h [1] was 426 µg/mL (≈ 1150 µM) and the “mean ED90” value ([2]; P. falciparum Pf3D7^0087/N9 in humanised NODscidIL2Rγnull mice) was 0.53 mg/kg. The “mean AUCED90” value ([2]; blood exposure at ED90 (AUC0-23h after first dose), P. falciparum mouse model) was 0.18 μg·h·mL-1·day-1.
